Structures are written as SMILES.

This assay concerns L1210. Put plainly: Inhibitory activity against L1210 cell line. Format: functional, cell-based. To be noted: Mus musculus.
In the case of `COc1cc([C@@H]2c3cc4c(cc3[C@@H](O[C@@H]3O[C@H]5CO[C@@H](C)O[C@H]5[C@H](O)[C@@H]3O)[C@H]3C(=O)OC[C@H]23)OCO4)cc(OC)c1O`, the half-inhibitory concentration (IC50) – broadly, the midpoint of a concentration-inhibition curve – came to 6.74 µM.
`COc1cc([C@@H]2c3cc4c(cc3[C@@H](O)C3C(=O)OCC32)OCO4)cc(OC)c1O` (stereo partly drawn): half-maximal inhibition (IC50) required 27.4 µM.
`COc1cc([C@@H]2c3cc4c(cc3[C@@H](O[C@@H]3O[C@@H]5CO[C@@H](C)O[C@H]5[C@H](O)[C@H]3O)[C@H]3COC(=O)[C@H]23)OCO4)cc(OC)c1O` [ETOPOSIDE] gave an IC50 of 0.834 µM.
